Four compounds from ChEMBL document CHEMBL3997820, “Synthesis and evaluation of anticonvulsant properties of new N-Mannich bases derived from pyrrolidine-2,5-dione and its 3-methyl-, 3-isopropyl, and 3-benzhydryl analogs” (Bioorg Med Chem Lett, 2017) can be followed below.

Series [1] relates to Mus musculus. As to the kind of experiment: Anticonvulsant activity in ip dosed albino CD1 mouse assessed as minimum dose required to protect subcutaneous pentylenetetrazole-induced seizures in half and more mouse measured after 0.5 hrs. The series is classed as functional.
Series [2] deals with Mus musculus. As to the kind of experiment: Anticonvulsant activity in ip dosed albino CD1 mouse assessed as protection against 32 mA current-induced seizure by 6 Hz psychomotor test. It is filed as functional.
The test system of series [3] is Mus musculus. As to the kind of experiment: Anticonvulsant activity in ip dosed albino CD1 mouse assessed as protection against subcutaneous pentylenetetrazole-induced seizures. It is filed as functional.
The subject of series [4] is Mus musculus. As to the kind of experiment: Anticonvulsant activity in albino CD1 mouse assessed as protection against 32 mA current-induced seizure incidents at 100 mg/kg, ip after 0.5 hrs by 6 Hz psychomotor test. The series is classed as functional.
Series [5] deals with Mus musculus. As to the kind of experiment: Neurotoxicity in albino CD1 mouse assessed as motor impairment at 300 mg/kg, ip measured after 4 hrs by rotarod test. The note with it: in vivo. The series is classed as toxicity, organism-based.
For series [6], the system named is Mus musculus. As to the kind of experiment: Neurotoxicity in ip dosed albino CD1 mouse assessed as minimum dose required to induce motor impairment in half and more mouse measured after 0.5 hrs by rotarod test. It is filed as toxicity, organism-based. The note with it: in vivo. On the technique in general: Falling from the rotarod earlier than controls is read as motor impairment.

Series [7] relates to Mus musculus. As to the kind of experiment: Anticonvulsant activity in ip dosed albino CD1 mouse assessed as minimum dose required to protect subcutaneous pentylenetetrazole-induced seizures in half and more mouse measured after 4 hrs. The series is classed as functional.
Series [8] concerns Mus musculus. As to the kind of experiment: Anticonvulsant activity in ip dosed albino CD1 mouse assessed as minimum dose required to protect maximal electroshock-induced seizures in half and more mouse measured after 4 hrs. The series is classed as functional. On the technique in general: The maximal electroshock test induces tonic seizures with an electrical stimulus.
Series [9] has as its system Mus musculus. As to the kind of experiment: Anticonvulsant activity in ip dosed albino CD1 mouse assessed as minimum dose required to protect maximal electroshock-induced seizures in half and more mouse measured after 0.5 hrs. It is filed as functional.
A short description of series [10]: Neurotoxicity in ip dosed albino CD1 mouse assessed as motor impairment by rotarod test. The note with it: in vivo. The series is classed as toxicity, organism-based.
The subject of series [11] is Mus musculus. As to the kind of experiment: Protection index, ratio of TD50 for motor impairment in ip dosed albino CD1 mouse to ED50 for protection against subcutaneous pentylenetetrazole-induced seizures in ip dosed albino CD1 mouse.
Series [12] relates to Mus musculus. As to the kind of experiment: Protection index, ratio of TD50 for motor impairment in ip dosed albino CD1 mouse to ED50 for protection against 32 mA current-induced seizure in ip dosed albino CD1 mouse by 6 Hz psychomotor test.
For series [13], the system named is Mus musculus. As to the kind of experiment: Anticonvulsant in ip dosed CD1 mouse assessed as time to peak effect. The series is classed as functional.
The test system of series [14] is Mus musculus. As to the kind of experiment: Anticonvulsant activity in albino CD1 mouse assessed as protection against 32 mA current-induced seizure at 100 mg/kg, ip after 4 hrs by 6 Hz psychomotor test. The series is classed as functional, organism-based.
The test system of series [15] is Mus musculus. As to the kind of experiment: Anticonvulsant activity in albino CD1 mouse assessed as protection against 32 mA current-induced seizure at 100 mg/kg, ip after 0.5 hrs by 6 Hz psychomotor test. It is filed as functional.
Series [16] relates to Mus musculus. As to the kind of experiment: Anticonvulsant activity in albino CD1 mouse assessed as protection against subcutaneous pentylenetetrazole-induced seizures at 300 mg/kg, ip measured after 4 hrs. It is filed as functional, organism-based.
The subject of series [17] is Mus musculus. As to the kind of experiment: Anticonvulsant activity in albino CD1 mouse assessed as protection against maximal electroshock-induced seizures at 300 mg/kg, ip measured after 4 hrs. The series is classed as functional, organism-based.
Series [18] has as its system Mus musculus. As to the kind of experiment: Anticonvulsant activity in ip dosed albino CD1 mouse assessed as protection against maximal electroshock-induced seizures. It is filed as functional.
The subject of series [19] is Mus musculus. As to the kind of experiment: Neurotoxicity in ip dosed albino CD1 mouse assessed as minimum dose required to induce motor impairment in half and more mouse measured after 4 hrs by rotarod test. It is filed as toxicity, organism-based. Conditions: in vivo.
In series [20] the test system is Mus musculus. As to the kind of experiment: Anticonvulsant activity in albino CD1 mouse assessed as protection against subcutaneous pentylenetetrazole-induced seizures at 300 mg/kg, ip measured after 0.5 hrs. It is filed as functional, organism-based.
Series [21] concerns Mus musculus. As to the kind of experiment: Protection index, ratio of TD50 for motor impairment in ip dosed albino CD1 mouse to ED50 for protection against maximal electroshock-induced seizures in ip dosed albino CD1 mouse.
The subject of series [22] is Mus musculus. As to the kind of experiment: Anticonvulsant activity in ip dosed albino CD1 mouse assessed as protection against maximal electroshock-induced seizures by measuring time to peak effect. The series is classed as functional.
Series [23] concerns Mus musculus. As to the kind of experiment: Anticonvulsant activity in ip dosed albino CD1 mouse assessed as protection against subcutaneous pentylenetetrazole-induced seizures by measuring time to peak effect. It is filed as functional.
The next series is filed under the species Rattus norvegicus. As to the kind of experiment: Inhibition of [3H]-BTX binding to voltage-sensitive Na+ channel site 2 in Sprague-Dawley rat cerebral cortex synaptoneurosomes at 100 uM after 60 mins by liquid scintillation spectroscopic method relative to control.
For a further series, the species on record is Homo sapiens. As to the kind of experiment: Inhibition of N-type calcium channel (unknown origin).
For series [24], the system named is Mus musculus. As to the kind of experiment: Neurotoxicity in albino CD1 mouse assessed as motor impairment at 300 mg/kg, ip measured after 0.5 hrs by rotarod test. The series is classed as toxicity, organism-based. Conditions: in vivo.
The test system of series [25] is Mus musculus. As to the kind of experiment: Anticonvulsant activity in albino CD1 mouse assessed as protection against maximal electroshock-induced seizures at 300 mg/kg, ip measured after 0.5 hrs. It is filed as functional, organism-based.

The source made the active and inactive calls. The rule behind the calls is not given here.

A word on the ED50: it is the dose that gives a 50% effect, or the effect in half of the subjects. For orientation: TD50 means the dose at which the toxic effect under study appears in half of the subjects. In the case of `O=C1CC(C(c2ccccc2)c2ccccc2)C(=O)N1CN1CCN(CCO)CC1` (stereo unspecified), the Activity was 100 mg/kg with Mus musculus [1]; 66% in the series on Mus musculus [4]; “Non-Toxic” with Mus musculus [5]; 300 mg/kg in the series with Mus musculus [6]; 100 mg/kg in the series with Mus musculus [7]; 300 mg/kg in the series on Mus musculus [8]. The Activity in the series with Mus musculus [9] came out at 300 mg/kg. Moreover, the values for the ED50 in the series on Mus musculus [2] and in the series on Mus musculus [3] were 51.7 mg/kg and 83.1 mg/kg, respectively. Moreover, the TD50 in [10] stood at 222 mg/kg. Also, the “Ratio TD50/ED50” value in the series with Mus musculus [11] came to 2.67; in the series with Mus musculus [12], 4.29. Moreover, the Time with Mus musculus [13] worked out at 0.5 h.
Turning to `CN1CCN(CN2C(=O)CC(C(c3ccccc3)c3ccccc3)C2=O)CC1` (stereo unspecified), the Activity is 100 mg/kg in the series on Mus musculus [1]; 100% in the series with Mus musculus [15]; “Non-Toxic” in the series on Mus musculus [5]; 300 mg/kg in the series with Mus musculus [6]; 300 mg/kg in the series with Mus musculus [8]; 300 mg/kg in the series on Mus musculus [9]. Moreover, the ED50 was 39.2 mg/kg in the series on Mus musculus [2] and 75.6 mg/kg with Mus musculus [3]. In addition, in the series on Mus musculus [14], the result was Active. For the same compound, in the series with Mus musculus [16], the result was inactive. Also, the TD50 in series [10] stood at 247 mg/kg. The “Ratio TD50/ED50” value amounted to 3.26 with Mus musculus [11] and 6.28 in the series on Mus musculus [12]. Moreover, the Time in the series with Mus musculus [13] turned out to be 0.5 h.
The term inhibition denotes the share of the control response that was lost under treatment. In the case of `O=C1CC(C(c2ccccc2)c2ccccc2)C(=O)N1CN1CCOCC1` (stereo unspecified), the result in the series on Mus musculus [17] and in the series with Mus musculus [20] was inactive. Besides, the ED50 in the series on Mus musculus [2] came to 45.4 mg/kg; with Mus musculus [3], 102 mg/kg; in the series on Mus musculus [18], 41 mg/kg. In addition, the Activity was found to be 100% in the series on Mus musculus [15]; 300 mg/kg with Mus musculus [19]; 300 mg/kg in the series on Mus musculus [6]; 100 mg/kg in the series with Mus musculus [7]; 100 mg/kg with Mus musculus [9]. In addition, the TD50 in [10] is 254 mg/kg. Besides, the “Ratio TD50/ED50” value was 6.2 in the series with Mus musculus [21], 2.5 in the series with Mus musculus [11] and 5.59 with Mus musculus [12]. For the same compound, the Time in the series with Mus musculus [22] worked out at 0.5 h; with Mus musculus [23], 4 h. In the series listed under Rattus norvegicus, the inhibition was determined as 29.9%. Also, in the series listed under Homo sapiens, the inhibition result was “inactive”.
In the case of `CC(C)C1CC(=O)N(CN2CCN(CCO)CC2)C1=O` (stereo unspecified), the Activity entry with Mus musculus [5] was “Non-Toxic”; in the series with Mus musculus [24], “Non-Toxic”; with Mus musculus [7], 300 mg/kg; in the series on Mus musculus [8], 300 mg/kg. The outcome in the series on Mus musculus [20] and with Mus musculus [25] was inactive.
